# Test results: patent US20230012570A1, “BICYCLIC COMPOUND USED AS SELECTIVE ANDROGEN RECEPTOR MODULATOR” (MEDSHINE DISCOVERY INC., priority 2019, published 2023)
# Like-named read-outs stand apart in the source and are kept apart here.
# How the values were obtained:
# [1] = Pharmacokinetic test in male SD rats, intravenous and intragastric administration, plasma LC-MS/MS; type: in vivo; conditions: rat; for Vd: read-out: Apparent volume of distribution Vdss; for clearance: read-out: Clearance rate Cl; for AUC(0-inf): read-out: Curve area (0-inf) AUC0-inf; for AUC(0-t): read-out: Curve area (0-t) AUC0-last; for half-life: read-out: Half-life T1/2 (converted); for bioavailability: oral, intragastric vs intravenous administration, read-out: Bioavailability F; for Cmax: read-out: Blood drug concentration Cmax; for Tmax: read-out: Peak time Tmax
# Excerpt: Experimental Embodiment 2: Pharmacokinetic Test of the Compounds of the Present Disclosure
# Male SD rats were used as test animals, and LC-MS/MS method was used to determine the drug concentrations in plasma of rats at different time after intravenous and intragastric administration of compound 1A, compound 3A and compound 8A. To study the pharmacokinetic behavior of the compounds in rats and to evaluate their pharmacokinetic characteristics.
# 2.1 Test Drugs: Compound 1A, Compound 3A and Compound 8A
# 2.2 Test animals: 12 healthy adult male SD rats, divided into 6 groups with 2 rats in each group. The animal was purchased from Shanghai Sippr-BK laboratory animal Co. Ltd., and the animal production license number was SOCK (Shanghai) 2013-0016.
# An appropriate amount of sample was weighed, and appropriate amounts of DMSO, polyethylene glycol-15 hydroxystearate and water were added in turn according to the volume ratio of 10:10:80, and the clarified state of 0.2 mg/mL was reached after stirring and sonication for intravenous administration.
# An appropriate amount of sample was weighed and dissolved in 5% Tween 80+90% polyethylene glycol 400+5% polyvinylpyrrolidone K30 solution, and the clarified state of 0.5 mg/mL was reached after stirring and sonication for intragastric administration.
# 12 male SD rats were divided into 6 groups, and after fasting overnight, groups 1-3 were administered intravenously with a volume of 5 mL/kg; groups 4-6 were administered by gavage with a volume of 10 mL/kg.
# After compound 1A, compound 3A and compound 8A were intravenously administered to SD rats, 40 μL of blood was collected at 0.0833, 0.25, 0.5, 1, 2, 4, 8 and 24 hours, respectively, and placed in a test tube containing 2 μL of EDTA-K2. After compound 1A and compound 3A were administered by gavage, 40 μL of blood was collected at 0.25, 0.5, 1, 2, 4, 8 and 24 hours, respectively, and placed in a test tube containing 2 μL of EDTA-K2. The tubes were centrifuged at 4000 rpm for 15 minutes to separate the plasma and stored at −60° C. Animals were allowed to eat 2 hours after administration.
# The content of the test compounds in the plasma of rats after intravenous and intragastric administration was determined by LC-MS/MS method. The linear range of the method was 2.00-6000 nmol/L; plasma samples were analyzed after acetonitrile precipitation protein treatment.
# androgen receptor (AR) = target: T1, androgen receptor (AR) (Homo sapiens, UniProt P10275); experiment: Agonistic effect of test compounds on androgen receptor (AR), LiveBLAzer FRET reporter cell assay; type: cell-based
# T1 sequence (P10275 1-920): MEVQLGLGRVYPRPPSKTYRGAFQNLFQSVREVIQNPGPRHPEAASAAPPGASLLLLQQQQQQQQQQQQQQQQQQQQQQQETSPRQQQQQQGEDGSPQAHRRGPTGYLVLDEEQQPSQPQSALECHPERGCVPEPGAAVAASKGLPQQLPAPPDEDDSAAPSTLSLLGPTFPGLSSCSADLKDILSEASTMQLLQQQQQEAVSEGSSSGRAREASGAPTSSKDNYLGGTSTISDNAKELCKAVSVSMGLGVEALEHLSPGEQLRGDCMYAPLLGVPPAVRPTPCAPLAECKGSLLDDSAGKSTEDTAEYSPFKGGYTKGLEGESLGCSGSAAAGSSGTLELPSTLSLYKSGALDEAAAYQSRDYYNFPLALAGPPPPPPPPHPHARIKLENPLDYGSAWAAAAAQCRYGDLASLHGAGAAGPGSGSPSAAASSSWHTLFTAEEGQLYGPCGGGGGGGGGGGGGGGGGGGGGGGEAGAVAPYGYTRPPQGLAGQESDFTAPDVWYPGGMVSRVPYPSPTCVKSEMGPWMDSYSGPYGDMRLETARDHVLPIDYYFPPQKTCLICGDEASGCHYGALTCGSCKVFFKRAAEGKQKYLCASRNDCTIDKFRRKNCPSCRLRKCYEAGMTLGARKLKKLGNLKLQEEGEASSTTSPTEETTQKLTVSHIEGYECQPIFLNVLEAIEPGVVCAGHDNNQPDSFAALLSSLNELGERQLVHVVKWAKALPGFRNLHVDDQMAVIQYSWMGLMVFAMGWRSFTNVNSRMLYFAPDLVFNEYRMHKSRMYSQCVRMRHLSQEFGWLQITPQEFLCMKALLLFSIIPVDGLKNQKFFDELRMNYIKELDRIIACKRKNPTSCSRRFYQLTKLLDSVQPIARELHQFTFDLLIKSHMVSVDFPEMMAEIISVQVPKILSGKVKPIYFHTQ
# Description: Experimental Embodiment 1: Agonistic Effect of Test Compounds on Androgen Receptor (AR)
# 1. Preparation of Compounds, Placing in Plates:
# 1.1 Preparation of compounds: the test compounds were diluted to the working concentration, and each compound was diluted by 4 times with Echo for 10 concentration gradients, and the compounds were added to a 384-well cell plate according to the microplate layout diagram, with 200 nL per well;
# 1.2 AR cell assay medium: 87% Opti-MEM (reduced serum medium), 10% Dialyzed FBS (dialyzed fetal bovine serum), 1% NEAA (non-essential amino acids), 1% sodium pyruvate and 1% penicillin-streptomycin;
# 1.3 culture medium, trypsin and Dulbecco's phosphate buffer were preheated in a 37° C. water bath;
# 1.4 the original medium in the cell culture flask was removed, and the cells were washed once with 6 mL of Dulbecco's phosphate buffer;
# 1.5 3.5 mL of trypsin was added to the cell culture flask, and the flask was gently shaken to make the trypsin fully contact with the cells, the trypsin was removed; after aspirating the trypsin, the culture flask was placed in a 37° C. incubator containing 5% CO2 for about 1 minute;
# 1.6 the cells were resuspended with 10 mL of cell detection medium, and about 0.8 mL of cell suspension was taken out for counting (ViCell XR)
# 1.7 the cell suspension was diluted with culture medium to 2.5×10^5 cells per mL;
# 1.8 40 !IL of cell suspension was added to each well of the cell plate, and 40 μL of cell culture medium was added to the other wells, and the cells were incubated in a 37° C. incubator containing 5% CO2 for 16 hours.
# 2. Reading the Board and Analyzing Data:
# 2.1 Preparation of solution A: 182 μL of DMSO was added to 200 μg of LiveBLAzer™-FRET B/G/g substrate (CCF4-AM). The solution A was packaged and stored in a refrigerator at −20° C.;
# 2.2 preparation of 6×substrate buffer: 15 μL of solution A was added to 150 μL of solution B, and the mixture was vortexed evenly, then 2335 μL of solution C was added to the above solution and vortexed evenly;
# 2.3 the cell culture plate was taken out, and 8μL of 6×substrate buffer was added to each well, shaken for 1 minute, and centrifuged at 1000 rpm for 10 seconds; after sealing the membrane, the cells were incubated at 23° C. for 2 hours, and the plate was read with Envision, and the curve EC50 value was fitted by Prism software.
# [2] = intravenous administration, dose 1.1 (1A), 0.69 (3A), 0.716 (8A) mg/kg
# [3] = po, intragastric administration, dose 4.92 (1A), 4.2 (3A), 4.59 (8A) mg/kg
# [4] = AR cells, 16 hours incubation, 10 concentrations, read-out: EC50, agonist activity on androgen receptor
compound,measurement,setting,value
"N#Cc1ccc(N2CC3CC3C2C(O)C(F)(F)F)cc1C(F)(F)F (single isomer, unassigned) [Compound 1A]",Vd,[1]; [2],1.43 L/kg
same,clearance,[1]; [2],20.6 mL/min/kg
same,AUC(0-inf),[1]; [2],2.5 µM·h
same,AUC(0-t),[1]; [2],2.47 µM·h
same,half-life,[1]; [2],82.2 min
same,bioavailability,[1],11%
same,Cmax,[1]; [3],223 nM
same,AUC(0-t),[1]; [3],1.24 µM·h
same,Tmax,[1]; [3],4 h
same,EC50,androgen receptor (AR),0.81 nM
"N#Cc1c(F)cc(N2CC3CC3C2C(O)C(F)(F)F)cc1Cl (single isomer, unassigned) [Compound 5A]",EC50,androgen receptor (AR),0.37 nM
"N#Cc1c(F)cc(N2CC3CC3C2C(O)C(F)(F)F)cc1C(F)(F)F (single isomer, unassigned) [Compound 7A]",EC50,androgen receptor (AR),0.53 nM
"N#Cc1ncc(N2CC3CC3C2C(O)C(F)(F)F)cc1C(F)(F)F (single isomer, unassigned) [Compound 8A]",Vd,[1]; [2],2.22 L/kg
same,clearance,[1]; [2],6.99 mL/min/kg
same,AUC(0-inf),[1]; [2],4.87 µM·h
same,AUC(0-t),[1]; [2],4.78 µM·h
same,half-life,[1]; [2],251 min
same,bioavailability,[1],41%
same,Cmax,[1]; [3],1660 nM
same,AUC(0-inf),[1]; [3],12.9 µM·h
same,AUC(0-t),[1]; [3],12.7 µM·h
same,half-life,[1]; [3],221 min
same,Tmax,[1]; [3],4 h
same,EC50,androgen receptor (AR); [4],3.25 nM
"N#Cc1ncc(N2CC3CC3C2C(O)C(F)(F)F)cc1OC(F)F (single isomer, unassigned) [Compound 9A]",EC50,androgen receptor (AR); [4],47.8 nM
"N#Cc1ncc(N2CC3CC3C2C(O)C(F)(F)F)cc1Cl (single isomer, unassigned) [Compound 10A]",EC50,androgen receptor (AR); [4],55.8 nM
"COc1cc(N2CC3CC3C2C(O)C(F)(F)F)cnc1C#N (single isomer, unassigned) [Compound 11A]",EC50,androgen receptor (AR); [4],135 nM
"N#Cc1ccc(N2C[C@@H]3COC[C@@H]3[C@H]2C(O)C(F)(F)F)cc1C(F)(F)F (single isomer, unassigned) [Compound 14A]",EC50,androgen receptor (AR),0.39 nM
N#Cc1ccc(N2CC3CC3C2C(O)C(F)(F)F)cc1C(F)F (stereo not shown) [Mixture of compounds 2A and 2B],EC50,androgen receptor (AR),8.8 nM
N#Cc1cc(N2CC3CC3C2C(O)C(F)(F)F)cc(F)c1C#N (stereo not shown) [Mixture of compounds 6A and 6B],EC50,androgen receptor (AR); [4],4.3 nM
N#Cc1ncc(N2CC3C(C2C(O)C(F)(F)F)C3(F)F)cc1C(F)(F)F (stereo not shown) [Mixture of compounds 12A and 12B],EC50,androgen receptor (AR); [4],6.33 nM
